Test results as given in ChEMBL document CHEMBL4028884, “Discovery, Development, and Cellular Delivery of Potent and Selective Bicyclic Peptide Inhibitors of Grb7 Cancer Target” (J Med Chem, 2017).
Calls of active or inactive are those of the source. No cut-off for these calls is given here. Where a SMILES comes first, the peptide text is derived from it. Bridges are numbered along the chain shown (N, C = ends). [ ]: non-standard residue; d: D form. Phe(4-COOH) = N[C@@H](Cc1ccc(C(=O)O)cc1)C(=O)O

Columns and labels:
[1] = biological target: Growth factor receptor-bound protein 7 (Homo sapiens) (UniProt Q14451); assay: Inhibition of GRB7-FAK interaction in human SKBR3 cells assessed as FAK detection in whole cells at 20 uM preincubated for 1 hr followed by fibronectin stimulation measured after 10 mins by Western blot analysis; format: cell-based
Chain of Growth factor receptor-bound protein 7 (Homo sapiens) (Q14451 whole entry, the tested form may be a part): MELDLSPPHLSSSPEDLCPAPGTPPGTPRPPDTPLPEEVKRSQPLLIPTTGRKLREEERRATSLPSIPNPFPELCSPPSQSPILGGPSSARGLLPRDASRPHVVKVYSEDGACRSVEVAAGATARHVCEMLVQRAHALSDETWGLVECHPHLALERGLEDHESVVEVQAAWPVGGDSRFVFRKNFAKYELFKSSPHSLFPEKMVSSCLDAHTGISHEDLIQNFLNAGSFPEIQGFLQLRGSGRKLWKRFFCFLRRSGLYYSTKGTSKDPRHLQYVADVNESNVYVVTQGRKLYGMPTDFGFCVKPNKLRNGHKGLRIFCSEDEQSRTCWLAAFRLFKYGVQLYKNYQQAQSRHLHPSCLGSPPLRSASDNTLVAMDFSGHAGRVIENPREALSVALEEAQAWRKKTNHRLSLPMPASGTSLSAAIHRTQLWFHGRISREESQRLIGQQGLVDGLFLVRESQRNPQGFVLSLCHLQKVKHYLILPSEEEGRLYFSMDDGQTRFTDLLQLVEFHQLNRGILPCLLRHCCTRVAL

[2] = biological target: Growth factor receptor-bound protein 7 (Homo sapiens) (UniProt Q14451); assay: Inhibition of GRB7-SHC interaction in human SKBR3 whole cells at 20 uM preincubated for 1 hr followed by fibronectin stimulation measured after 10 mins by Western blot analysis; format: cell-based
[3] = biological target: Growth factor receptor-bound protein 7 (Homo sapiens) (UniProt Q14451); assay: Inhibition of GRB7-FAK interaction in human SKBR3 cells assessed as FAK detection in cell lysates at 20 uM preincubated for 1 hr followed by fibronectin stimulation measured after 10 mins by Western blot analysis; format: cell-based
[4] = biological target: Growth factor receptor-bound protein 7 (Homo sapiens) (UniProt Q14451); assay: Inhibition of GRB7-HER2 interaction in human SKBR3 cells assessed as HER2 detection in cell lysates at 20 uM preincubated for 1 hr followed by fibronectin stimulation measured after 10 mins by Western blot analysis; format: cell-based
[5] = biological target: Growth factor receptor-bound protein 7 (Homo sapiens) (UniProt Q14451); assay: Inhibition of GRB7-SHC interaction in human SKBR3 cells assessed as SHC detection in cell lysates at 20 uM preincubated for 1 hr followed by fibronectin stimulation measured after 10 mins by Western blot analysis; format: cell-based
[6] = biological target: Growth factor receptor-bound protein 7 (Homo sapiens) (UniProt Q14451); assay: Inhibition of GRB7-HER2 interaction in human SKBR3 cells assessed as HER2 detection in whole cells at 20 uM preincubated for 1 hr followed by fibronectin stimulation measured after 10 mins by Western blot analysis; format: cell-based
[7] = biological target: T1, Growth factor receptor-bound protein 10 (Homo sapiens) (UniProt Q13322); assay: Binding affinity to human GST-tagged GRB10-SH2 domain (471 to 532 residues) expressed in Escherichia coli BL21(DE3) pLys after 60 to 80 secs in presence of 1 mM phosphate buffer by SPR assay
T1 sequence (whole entry): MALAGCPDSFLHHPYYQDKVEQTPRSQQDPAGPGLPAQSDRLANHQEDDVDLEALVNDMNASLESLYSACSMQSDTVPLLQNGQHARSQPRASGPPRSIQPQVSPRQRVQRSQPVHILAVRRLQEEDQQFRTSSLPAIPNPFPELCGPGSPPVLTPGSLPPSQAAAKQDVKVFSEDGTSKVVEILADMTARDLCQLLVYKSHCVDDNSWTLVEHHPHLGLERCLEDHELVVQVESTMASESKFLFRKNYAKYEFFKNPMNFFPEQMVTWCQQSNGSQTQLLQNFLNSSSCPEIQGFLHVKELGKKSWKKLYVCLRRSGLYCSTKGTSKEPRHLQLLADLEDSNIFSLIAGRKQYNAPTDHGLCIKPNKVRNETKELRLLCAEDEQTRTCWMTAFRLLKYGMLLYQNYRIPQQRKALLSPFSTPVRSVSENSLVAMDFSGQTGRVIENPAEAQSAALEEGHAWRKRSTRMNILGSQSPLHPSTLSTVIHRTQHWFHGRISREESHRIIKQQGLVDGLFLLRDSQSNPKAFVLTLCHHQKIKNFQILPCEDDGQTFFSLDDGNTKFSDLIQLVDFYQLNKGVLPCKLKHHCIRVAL

[8] = biological target: T1, Growth factor receptor-bound protein 10 (Homo sapiens); assay: Binding affinity to human GST-tagged GRB10-SH2 domain (471 to 532 residues) expressed in Escherichia coli BL21(DE3) pLys after 60 to 80 secs in presence of 50 mM phosphate buffer by SPR assay
[9] = biological target: Growth factor receptor-bound protein 2 (Homo sapiens) (UniProt P62993); assay: Binding affinity to human GST-tagged GRB2-SH2 domain expressed in Escherichia coli BL21(DE3) pLys after 60 to 80 secs in presence of 50 mM phosphate buffer by SPR assay
Chain of Growth factor receptor-bound protein 2 (Homo sapiens) (P62993 whole entry, looked up, the tested form may be a part): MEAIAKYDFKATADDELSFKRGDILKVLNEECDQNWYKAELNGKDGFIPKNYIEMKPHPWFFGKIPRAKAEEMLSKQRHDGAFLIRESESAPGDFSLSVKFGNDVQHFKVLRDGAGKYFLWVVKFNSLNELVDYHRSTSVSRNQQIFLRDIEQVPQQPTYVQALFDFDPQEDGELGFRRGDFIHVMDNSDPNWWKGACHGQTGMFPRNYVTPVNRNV

[10] = biological target: Growth factor receptor-bound protein 2 (Homo sapiens) (UniProt P62993); assay: Binding affinity to human GST-tagged GRB2-SH2 domain expressed in Escherichia coli BL21(DE3) pLys after 60 to 80 secs in presence of 1 mM phosphate buffer by SPR assay

In the case of CC[C@H](C)[C@H](NC(=O)[C@H](CCCCN)NC(=O)[C@@H](NC(=O)[C@H](CCC(N)=O)NC(=O)[C@H](CCCNC(=N)N)NC(=O)[C@@H]1CSCC(=O)N[C@H]2CCCCNC(=O)CC[C@H](NC(=O)[C@H](CC(N)=O)NC(=O)[C@H](CC(=O)O)NC(=O)[C@H](Cc3ccc(C(=O)O)cc3)NC(=O)CNC(=O)[C@H](CCC(=O)O)NC(=O)[C@H](Cc3ccccc3)NC2=O)C(=O)N1)[C@@H](C)CC)C(=O)N[C@@H](Cc1c[nH]c2ccccc12)C(=O)N[C@@H](Cc1ccccc1)C(=O)N[C@@H](CCC(N)=O)C(=O)N[C@@H](CC(N)=O)C(=O)N[C@@H](CCCNC(=N)N)C(=O)N[C@@H](CCCNC(=N)N)C(=O)N[C@@H](CCSC)C(=O)N[C@@H](CCCCN)C(=O)N[C@@H](Cc1c[nH]c2ccccc12)C(=O)N[C@@H](CCCCN)C(=O)N[C@@H](CCCCN)C(N)=O ({CH2CO}-KFEG[Phe(4-COOH)]DNECRQIKIWFQNRRMKWKK-NH2; lactam 1-8; thioether N-9), the inhibition [1] is reported as “Active”, the inhibition [2] is reported as “Active” and the inhibition [3] is reported as “Active”. The inhibition [4] was “Active”, the inhibition [5] was “Active” and the inhibition [6] was “Active”.

With NC(=O)C[C@@H]1NC(=O)[C@H](CC(=O)O)NC(=O)[C@H](Cc2ccc(O)cc2)NC(=O)CNC(=O)[C@H](CCC(=O)O)NC(=O)[C@H](Cc2ccccc2)NC(=O)[C@@H]2COCc3cn(nn3)CCC[C@H](NC1=O)C(=O)N[C@H](C(N)=O)CSCC(=O)N2 the Activity [7] was “inactive”, the Activity [8] was “inactive” and the Activity [9] was “inactive”. For the same molecule, the Activity [10] was “inactive”.

For NC(=O)C[C@@H]1NC(=O)[C@H](CC(=O)O)NC(=O)[C@H](Cc2ccc(O)cc2)NC(=O)CNC(=O)[C@H](CCC(=O)O)NC(=O)[C@H](Cc2ccccc2)NC(=O)[C@@H]2CCCCNC(=O)CC[C@H](NC1=O)C(=O)N[C@H](C(N)=O)CSCC(=O)N2 ({CH2CO}-KFEGYDNEC-NH2; lactam 1-8; thioether N-9), the Activity [7] was “inactive”, the Activity [8] was “inactive” and the Activity [9] was “inactive”. For the same molecule, the Activity [10] was “inactive”.

With NC(=O)C[C@@H]1NC(=O)[C@H](CC(=O)O)NC(=O)[C@H](Cc2ccc(O)cc2)NC(=O)CNC(=O)[C@H](CCC(=O)O)NC(=O)[C@H](Cc2ccccc2)NC(=O)[C@@H]2CCC(=O)NCCCC[C@H](NC1=O)C(=O)N[C@H](C(N)=O)CSCC(=O)N2 ({CH2CO}-EFEGYDNKC-NH2; lactam 1-8; thioether N-9) the Activity [7] was “inactive”, the Activity [8] was “inactive” and the Activity [9] was “inactive”. The Activity [10] was “inactive”.

In the case of CC[C@H](C)[C@H](NC(=O)[C@H](CCCCN)NC(=O)[C@@H](NC(=O)[C@H](CCC(N)=O)NC(=O)[C@H](CCCNC(=N)N)NC(=O)[C@@H]1CSCC(=O)N[C@H]2CCCCNC(=O)CC[C@H](NC(=O)[C@H](CC(N)=O)NC(=O)[C@H](CC(=O)O)NC(=O)[C@H](Cc3ccc(O)cc3)NC(=O)CNC(=O)[C@H](CCC(=O)O)NC(=O)[C@H](Cc3ccccc3)NC2=O)C(=O)N1)[C@@H](C)CC)C(=O)N[C@@H](Cc1c[nH]c2ccccc12)C(=O)N[C@@H](Cc1ccccc1)C(=O)N[C@@H](CCC(N)=O)C(=O)N[C@@H](CC(N)=O)C(=O)N[C@@H](CCCNC(=N)N)C(=O)N[C@@H](CCCNC(=N)N)C(=O)N[C@@H](CCSC)C(=O)N[C@@H](CCCCN)C(=O)N[C@@H](Cc1c[nH]c2ccccc12)C(=O)N[C@@H](CCCCN)C(=O)N[C@@H](CCCCN)C(N)=O ({CH2CO}-KFEGYDNECRQIKIWFQNRRMKWKK-NH2; lactam 1-8; thioether N-9), the inhibition [1] is reported as “Active”, the inhibition [2] is reported as “Active” and the inhibition [3] is reported as “Active”. For the same molecule, the inhibition [4] was “Active”, the inhibition [5] was “Active” and the inhibition [6] was “Active”.

CC[C@H](C)[C@H](NC(=O)[C@H](CCCCN)NC(=O)[C@@H](NC(=O)[C@H](CCC(N)=O)NC(=O)[C@H](CCCNC(=N)N)NC(=O)[C@@H]1CSCC(=O)N[C@@H](Cc2c[nH]c3ccccc23)C(=O)N[C@@H](Cc2ccccc2)C(=O)N[C@@H](CCC(=O)O)C(=O)NCC(=O)N[C@@H](Cc2ccc(C(=O)O)cc2)C(=O)N[C@@H](CC(=O)O)C(=O)N[C@@H](CC(N)=O)C(=O)N[C@@H]([C@@H](C)O)C(=O)N[C@@H](Cc2ccccc2)C(=O)N2CCC[C@H]2C(=O)N1)[C@@H](C)CC)C(=O)N[C@@H](Cc1c[nH]c2ccccc12)C(=O)N[C@@H](Cc1ccccc1)C(=O)N[C@@H](CCC(N)=O)C(=O)N[C@@H](CC(N)=O)C(=O)N[C@@H](CCCNC(=N)N)C(=O)N[C@@H](CCCNC(=N)N)C(=O)N[C@@H](CCSC)C(=O)N[C@@H](CCCCN)C(=O)N[C@@H](Cc1c[nH]c2ccccc12)C(=O)N[C@@H](CCCCN)C(=O)N[C@@H](CCCCN)C(N)=O was tested, and the inhibition [1] was “Active”, the inhibition [2] was “Active” and the inhibition [3] was “Active”. For the same molecule, the inhibition [4] was “Active”, the inhibition [5] was “Active” and the inhibition [6] was “Active”.
